Experimental data published in patent US20250041367A1, “BACTERIOPHAGES AND USE THEREOF FOR THE TREATMENT OR PREVENTION OF INFECTION CAUSED BY E. COLI” (Purdue Research Foundation, priority 2023, published 2025).
“Also recorded” adds a separate entry of the source.

Tests used:
host APEC E. coli O2:H4 = experiment: Lytic capacity of individual phages in liquid media (OD600); assay type: cell-based, Escherichia coli; settings: for OD600 reading of phage-treated APEC culture: after 1 hour of incubation, MOI 10, 37° C., untreated host OD600=0.454
Procedure: (§1) Individual APEC strains (100 μL) were inoculated into 15 mL LB media in separate tubes (two tubes per strain) and incubated at 37° C. in a shaking incubator. Once the bacterial cultures reached an OD600 0.18-0.22, the individual bacteriophage types (MOI=10) were added to one tube from the pair of tubes inoculated with their respective host APEC strain. The other tubes of bacterial culture were left untreated and served as negative controls. Bacterial growth was assessed by measuring absorbance (OD600) in all tubes every hour for 4 hours. The experiment was repeated three times.
(§2) The six APEC strains were individually inoculated into LB broth and incubated at 37° C. until they reached log-phase growth. Phages were added to the log-phase culture of their APEC host at an MOI of 10, and subsequent bacterial concentrations were determined by measuring the absorbance (OD600) of the culture at 1, 2, 3, and 4 hours post-phage application. One flask containing only bacterial culture was included as a negative control. Additional flasks containing both bacterial cultures and antibiotics (specifically, gentamycin sulfate, kanamycin sulfate, nalidixic acid, or chloramphenicol) at their respective minimum inhibitory concentrations (National Antibiotic Resistance Monitoring System (NARMS) 2019, antibiotics tested by NARMS) were included as positive controls. These lytic capacity experiments were conducted in triplicate for each of the phage types and their respective host APEC strains.

[1] = test system: E. coli serotype O1:H7 (APEC); experiment: Host range spot assay; assay type: cell-based, Escherichia coli; design: key: — indicates no lysis at all; 0.1-1.0 indicates that the phage is semi-lytic; 1.1-2.0 indicates moderate lysis of bacteria; 2.1-3.0 indicates complete lysis of bacteria and formation of a transparent, circular clearing on the bacterial lawn; settings: E. coli serotype O1:H7, scale 0-3
Procedure: (§3) The host range of each bacteriophage type was determined by performing spot assays using each of the ten distinct APEC serotypes mentioned above. Spot assays were performed as known in the art (Barrow et al., 1998, Clinical and Diagnostic Laboratory Immunology, 5 (3), 294-298). 100 μL aliquots of log-phase bacterial cultures were combined with 67.5 μL 1M CaCl2) and 4 mL LB overlay, mixed briefly, and poured over LB agar plates. Once the overlay had solidified, 5 μL aliquots of individual phage types were applied (i.e., spotted) onto the plates, and plates were incubated at 37° C. overnight. Plates were assessed for clearings the following day and the degree of lysis was measured using a four-point scale in which 0 indicated no lysis, 1.0 indicated some lysis, 2.0 indicated moderate lysis, and 3 indicated complete lysis. Spot assays were conducted in triplicate for each phage and APEC strain.

[2] = test system: E. coli serotype O2:H6 (APEC); experiment: Host range spot assay; assay type: cell-based, Escherichia coli; settings: E. coli serotype O2:H6, scale 0-3
Procedure: as §3

[3] = Phage stability in simulated gastric fluid (SGF); assay type: physicochemical; settings: for phage concentration lower in SGF-exposed than in PBS-exposed samples: 90 minutes of exposure; for phage concentration, unencapsulated, PBS-treated: 1×PBS control; for phage concentration, unencapsulated, PBS-treated / phage concentration, unencapsulated, SGF-exposed: 41° C.; for phage concentration, unencapsulated, SGF-exposed: SGF pH 2.5 with pepsin
Procedure: The stability of bacteriophages in gastric environments was tested by exposing both encapsulated and unencapsulated bacteriophages to simulated gastric fluid (SGF; 0.32% pepsin (w/v) in 0.2% NaCl; pH 2.5) and to 1×PBS (Moghtader et al., 2016). In this experiment, unencapsulated phages (0.5 mL, in concentrations ranging from 1×10^9 to 4×10^8 PFU/mL depending on the phage type) were added to 4.5 mL of either SGF or PBS (5 replicates per treatment) and incubated at 41° C. This temperature was chosen as it is a typical internal temperature for chickens. Encapsulated phages (0.5 g, in concentrations ranging from 2×10^9 to 2×10^8 PFU/mL depending on the phage type) were also added to 4.5 mL of either SGF or PBS (5 replicates per treatment) and incubated at 41° C. Aliquots (100 μL) were collected from each unencapsulated phage sample after 5, 15, 30, 60, and 90 minutes of exposure to SGF or PBS. These aliquots were serially diluted, and phage concentrations were measured by standard plaque assay. At 15, 30, 60, and 90 minutes post-SGF or PBS exposure, microencapsulated phages were washed with SM buffer to remove residual SGF or PBS and then dissolved in a dissolving solution. Aliquots of the dissolved microcapsules were serially diluted and phage concentrations were measured by standard plaque assay. This experiment was conducted in triplicate for each phage type. Samples containing SGF and unencapsulated bacteriophages were serially diluted without washing and phage concentrations were measured by standard plaque assay as described above. Concentrations of viable phages after exposure to SGF or PBS for a given length of time were then compared.

[4] = Phage stability in simulated intestinal fluid (SIF); assay type: physicochemical; settings: unencapsulated phage, SIF pH 7, 41° C., 1, 2, and 3 hours
Procedure: To assess phage stability in intestinal fluids, 0.5 mL of unencapsulated phages were added to 4.5 mL of simulated intestinal fluid (SIF; 0.1% (w/v) bile salt and 0.4% (w/v) pancreatin in 50 mM KH2PO4; pH 7) and incubated at 41° C. As a negative control, 0.5 mL of unencapsulated phages were added to 4.5 mL of 1×PBS and incubated at 41° C. Aliquots (100 μL) were collected from each sample after 1, 2, and 3 hours of exposure to SIF. These aliquots were serially diluted and phage concentrations were measured by standard plaque assay as described above. The experiment was conducted in triplicate for each phage type. Concentrations of viable phages after exposure to SIF or PBS at a given time point were then compared.

host APEC E. coli O6:H31 = experiment: Lytic capacity of individual phages in liquid media (OD600); assay type: cell-based, Escherichia coli; settings: for OD600 reading of phage-treated APEC culture: after 1 hour of incubation, MOI 10, 37° C., untreated AHP host OD600=0.497; for concentration of APEC (OD600) versus untreated APEC cultures: 2, 3, and 4 hours post-treatment
Procedure: as §1, §2

[5] = 1, 2, 3, and 4 hours post-treatment, MOI 10, P<0.05

Substance | OD600 reading of phage-treated APEC culture (host APEC E. coli O2:H4) | degree of lysis [1] | degree of lysis [2] | phage concentration lower in SGF-exposed than in PBS-exposed samples ([3]; encapsulated phage) | phage concentration, encapsulated, PBS-exposed ([3]; encapsulated phage, 60 minutes) | phage concentration, encapsulated, PBS-exposed ([3]; encapsulated phage, 90 minutes) | phage concentration, encapsulated, SGF-exposed ([3]; encapsulated phage, 60 minutes) | phage concentration, encapsulated, SGF-exposed ([3]; encapsulated phage, 90 minutes) | phage concentration, unencapsulated, PBS-treated ([3]; unencapsulated phage) | phage concentration lower in SGF-exposed than in PBS-exposed samples ([3]; unencapsulated phage) | phage concentration, unencapsulated, SGF-exposed ([3]; unencapsulated phage) | phage concentration SIF-exposed versus PBS-exposed [4] | concentration of APEC host versus APEC cultures incubated without phages (host APEC E. coli O6:H31; [5]) | OD600 reading of phage-treated APEC culture (host APEC E. coli O6:H31) | phage concentration SGF-exposed versus PBS-exposed ([3]; unencapsulated phage, after 5 and 15 minutes of exposure, P>0.05) | phage concentration SGF-exposed versus PBS-exposed ([3]; unencapsulated phage, after 30, 60, and 90 minutes of exposure, P<0.05) | concentration of APEC host versus APEC cultures incubated without phages (host APEC E. coli O2:H4; [5]) | concentration of APEC (OD600) versus untreated APEC cultures (host APEC E. coli O6:H31; MOI 10, P<0.05)
Escherichia phage vB_Eco_MP_1 [MP1] | 0.101 | — | 2.7 | 0.97 log10 PFU/mL | 9.23 log10 PFU/mL | 9.19 log10 PFU/mL | 9.09 log10 PFU/mL | 8.11 log10 PFU/mL | 9.27 log10 PFU/mL | 3.9 log10 PFU/mL | 8.71 log10 PFU/mL | significantly lower |  |  |  |  |  | 
Escherichia phage vB_Eco_AHP |  | 3.0 | 2.7 |  | 9.23 log10 PFU/mL | 9.19 log10 PFU/mL | 9.21 log10 PFU/mL | 8.12 log10 PFU/mL |  | 2.35 log10 PFU/mL |  |  | significantly lower | 0.284 | No significant differences | significantly lower |  | 
Escherichia phage vB_Eco_MP_2 [MP2] | 0.328 | — | 3.0 | 0.74 log10 PFU/mL | 9.15 log10 PFU/mL | 9.07 log10 PFU/mL | 9.11 log10 PFU/mL | 8.41 log10 PFU/mL | 9.05 log10 PFU/mL | 4.5 log10 PFU/mL | 7.72 log10 PFU/mL |  |  |  |  |  | significantly lower | 
Escherichia phage vB_Eco_AKA |  | — | 1.7 |  | 8.27 log10 PFU/mL | 8.22 log10 PFU/mL | 8.17 log10 PFU/mL | 7.3 log10 PFU/mL |  |  | could not be detected; also recorded: not detectable |  |  | did not significantly differ |  |  |  | Significantly lower
Escherichia phage vB_Eco_AHC |  | — | 2.0 |  | 8.31 log10 PFU/mL | 8.23 log10 PFU/mL | 8.13 log10 PFU/mL | 7.15 log10 PFU/mL |  |  | could not be detected; also recorded: not detectable |  |  | did not significantly differ |  |  |  | Significantly lower
Escherichia phage vB_Eco_MIA |  | — | 2.3 |  | 8.27 log10 PFU/mL | 8.27 log10 PFU/mL | 8.14 log10 PFU/mL | 7.34 log10 PFU/mL |  |  | could not be detected; also recorded: not detectable |  |  | did not significantly differ |  |  |  | Significantly lower
